# Target: human TrkA receptor (Homo sapiens (Human), UniProt P04629)
# Assay: DiscoverX PathHunter TrkA functional assay
# Format: cell-based
# Conditions: U2OS cells expressing human TrkA-ProLink, Shc1-EA and p75NTR; compound 1 h, then NGF at ~80% of maximal response for 3 h; luminescence
# Method: TrkA functional activity was measured using a DiscoverX PathHunter assay. In this assay, U2OS cells express the human TrkA receptor as a fusion with the weakly complementing fragment of B-galactosidase, which DiscoverX calls “Prolink (PK)”; additionally, Shc1 is fused with a larger fragment, which is called “Enzyme Acceptor (EA)”. Activation of the TrkA receptor, upon NGF addition, results in the kinase domain being phosphorylated, resulting in subsequent recruitment of Shc1-EA protein. That recruitment results in an active B-galactosidase enzyme that is detected by addition of a chemiluminescent substrate. The human p75^NTR protein was also expressed as a co-receptor for NGF.
# All reagents were purchased from DiscoverX, except for the receptor agonists (NGF, BDNF, NT3) which were purchased from Peprotech. Cells were expanded and frozen into cryovials, and stored in the vapor phase of liquid nitrogen, and thawed immediately before use. Thawed cells were added to a 384-well plate at 7500 cells/well, and allowed to incubate overnight. Compound at various concentrations was added the following morning and allowed to incubate on cells for 1 h. Then, NGF was added at a concentration sufficient to elicit ˜80% of a maximal response and allowed to incubate for 3 h at ambient temperature. DiscoverX PathHunter detection reagent was then added and the plate was further incubated for 1 h in the dark. The plate was then read via luminescence on the Perkin Elmer Envision.
# Sequence of human TrkA receptor (P04629 33-796): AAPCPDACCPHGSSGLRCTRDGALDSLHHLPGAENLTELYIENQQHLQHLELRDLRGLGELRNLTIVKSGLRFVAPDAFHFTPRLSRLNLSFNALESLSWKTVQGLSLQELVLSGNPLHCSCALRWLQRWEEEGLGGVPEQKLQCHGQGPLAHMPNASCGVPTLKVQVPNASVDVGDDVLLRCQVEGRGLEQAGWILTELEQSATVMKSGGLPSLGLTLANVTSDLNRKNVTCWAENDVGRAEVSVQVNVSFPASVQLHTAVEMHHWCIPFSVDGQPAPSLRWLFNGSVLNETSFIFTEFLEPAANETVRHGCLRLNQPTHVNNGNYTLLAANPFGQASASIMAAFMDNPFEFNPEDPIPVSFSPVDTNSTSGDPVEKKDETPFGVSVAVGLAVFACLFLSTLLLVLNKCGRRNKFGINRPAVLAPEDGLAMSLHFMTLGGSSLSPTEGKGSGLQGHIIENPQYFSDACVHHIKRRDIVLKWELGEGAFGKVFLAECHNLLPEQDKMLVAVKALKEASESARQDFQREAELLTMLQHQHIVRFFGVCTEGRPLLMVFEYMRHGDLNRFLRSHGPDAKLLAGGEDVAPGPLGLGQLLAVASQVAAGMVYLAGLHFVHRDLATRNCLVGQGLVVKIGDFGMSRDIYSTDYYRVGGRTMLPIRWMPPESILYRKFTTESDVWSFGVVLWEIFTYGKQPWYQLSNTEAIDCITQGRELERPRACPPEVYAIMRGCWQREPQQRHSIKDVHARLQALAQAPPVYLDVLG
row,SMILES,IC50 [nM]
1,"Cn1ccc(-c2cc(C(=O)Nc3cc(-c4ccc(=O)[nH]n4)nn3-c3ccccc3)c(Cl)cc2C(F)(F)F)n1 [Compound 55, 2-chloro-5-(1-methyl-1H-pyrazol-3-yl)-N-[3-(6-oxo-1,6-dihydropyridazin-3-yl)-1-phenyl-1H-pyrazol-5-yl]-4-(trifluoromethyl)benzamide]",1.6
2,"CC(O)c1ccc(-c2cc(NC(=O)c3cc(-c4ncccn4)c(C(F)(F)F)cc3F)n(-c3ccc(F)cc3)n2)nc1 (single isomer, unassigned) [Compound 100, (S or R)-2-fluoro-N-(1-(4-fluorophenyl)-3-(5-(1-hydroxyethyl)pyridin-2-yl)-1H-pyrazol-5-yl)-5-(pyrimidin-2-yl)-4-(trifluoromethyl)benzamide]",12
3,"Cn1ccc(-c2cc(C(=O)Nc3cc(Cn4cnnn4)nn3-c3ccccc3)ccc2C(F)(F)F)n1 [Compound 66, 3-(1-methyl-1H-pyrazol-3-yl)-N-[1-phenyl-3-(1H-tetrazol-1-ylmethyl)-1H-pyrazol-5-yl]-4-(trifluoromethyl)benzamide]",2.3
4,"Cn1ccc(-c2cc(C(=O)Nc3cc(-c4ccncc4)nn3-c3cc(C(F)(F)F)n[nH]3)ccc2Cl)n1 [Compound 40, 4-chloro-3-(1-methyl-1H-pyrazol-3-yl)-N-[3-pyridin-4-yl-5′-(trifluoromethyl)-2′H-1,3′-bipyrazol-5-yl]benzamide]",3.2

# From US9914736B2, “TrKA kinase inhibitors, compositions and methods thereof” (Merck Sharp & Dohme Corp., priority 2014, dated 2018)
